This is an account of results in patent publication US11773086B2, “Fungal modulators” (TRUSTEES OF BOSTON UNIVERSITY, priority 2020, dated 2023).

The subject of data set [1] is HEK293 cancer cells that overexpress the efflux pump MDR1. Kind of data set: Doxorubicin cytotoxicity with azoffluxin. Type of data set: cell-based. The conditions noted are these: dose response and single concentration. The source says:
Dose response (FIG. 23A) and single concentration (FIG. 23B).

The subject of data set [2] is C. albicans CaCi-17 efflux. Kind of data set: Nile red accumulation (flow cytometry) in CaCi-17. Type of data set: cell-based, Candida albicans. The conditions noted are these: CaCi-17 and its cdr1Δ/cdr1Δ mutant. The protocol: FIG. 9A depicts checkerboard assays as described in FIG. 2B and performed with isolates of C. albicans. CaCi-2 and CaCi-17 represent early and late clinical isolates in which FLC resistance evolved over time. Growth was measured at 24 hours using OD600 and normalized to a no drug control well (see color bar). FIG. 9B depicts dose response assays conducted in YPD medium with a C. albicans parental strain, and strains with gain of function mutations in TAC1 as indicated. FLC was tittered in a two-fold dilution on the x-axis in the absence and presence of 50 μM azoffluxin. Growth was measured at 24 hours using OD600 and normalized to a no drug control well (see color bar). […] FIGS. 9D and 9E depict the intracellular concentrations of FLC and azoffluxin measured after treatment (combo treatment at 6.25 μM azoffluxin and 8 μg/mL FLC) for 1 hour by LC-MS. […] Significance was determined by an unpaired student t-test of each combination to the respective compound alone treatment, (*) indicates a p-value<0.05 and (**) indicates a p-value<0.01.
Cellular efflux was determined by measuring Nile red accumulation, as previously described. […] To quantify fluorescence, a CytoFlex Flow Cytometer (Beckman Coulter) was used. […] Each sample was run using the CytExpert Software until ˜20,000 events had been recorded. […]
For orientation: In flow cytometry, cells or beads pass a laser one at a time.

Data set [3] relates to C. auris. Description: Intracellular fluconazole and azoffluxin detection by LC-MS. Type of data set: cell-based, Candida auris. The conditions noted are these: combination treatment vs high fluconazole alone, 1 hour. The source says:
FIGS. 3A-3B, and 4A-4B illustrate azoffluxin increases fluconazole (FLC) bioavailability by inhibiting Cdr1-mediated efflux in C. auris, as described above. FIG. 3A depicts the relative abundance of specific sterols determined in C. auris after an 18-hour treatment with the respective compounds (⋅ indicates combo treatment concentrations) using LC-MS. Values are plotted relative to the internal standard of cholesterol and error bars indicate standard deviation between technical triplicates. Significance was determined by an unpaired student t-test of each condition to untreated, (*) indicates a p-value<0.05 and (**) indicates a p-value<0.01. FIG. 3B depicts the intracellular concentrations of FLC and azoffluxin measured after treatment for 1 hour (conditions as in FIG. 3A) Error bars indicate standard deviation between technical triplicates. Significance was determined by an unpaired student t-test, (**) indicates a p-value<0.01. FIG. 4A depicts the quantified relative expression of a panel of putative efflux pumps in C. auris Ci6684. Expression of CDR1 (B9J08_000164), MDR1 (B9J08_003981), CDR4-1 (B9J08_000479), CDR4-2 (B9J08_002451), SNQ2-1 (B9J08_001125), and SNQ2-2 (B9J08_004452) was measured by RT-qPCR. […] FIG. 4B depicts expression of CDR1 (B9J08_000164) and CDR4-1 (B9J08_000479) measured by quantitative real-time PCR (RT-qPCR). […]

Take `C=C(C)C[C@@H](O)COc1cc2c(cc1C1(c3cc4c(cc3OC[C@H](O)CC(=C)C)OCO4)C(=O)Nc3cc(F)ccc31)OCO2` [CMLD012336]: in data set [1], the cytotoxicity of doxorubicin entry is reported as “enhances cytotoxicity of doxorubicin”. Further, the Nile red accumulation entry in data set [2] is “increase in Nile red accumulation”. For the same compound, in data set [3], the “increase in intracellular fluconazole” value is given as ~2.5 fold.
